Assay results as given in ChEMBL document CHEMBL4825705, “Iridoid Constituents of Viburnum brachybotryum” (J Nat Prod, 2021).
Structures can show the parent of a compound that is named as a salt.

System: HCT-116
Test: Cytotoxicity against human HCT-116 cells assessed as cell growth inhibition measured after 48 hrs by MTT assay
Assay type: functional, cell-based
Settings: HCT-116, 48 h

Work on `C=C1[C@H]2O[C@@H](OC(=O)/C=C(/C)COC(C)=O)[C@H]3[C@@H]1CC(=O)[C@@]3(CCl)O2` yielded an IC50 of 5.2 µM.
Work on `C=C1[C@H]2O[C@@H](OC(=O)/C=C(/C)COC(C)=O)[C@H]3[C@@H]1CC(=O)[C@@]3(CO)O2` yielded an IC50 of 4.9 µM.
`COc1cccc2c1C(=O)c1c(O)c3c(c(O)c1C2=O)C[C@@](O)(C(=O)CO)C[C@@H]3O[C@H]1C[C@H](N)[C@H](O)[C@H](C)O1` [DOXORUBICIN HYDROCHLORIDE] was tested, and the IC50 was 0.16 µM.
